The values that follow come from article PMC6591251, “Discovery of potent necroptosis inhibitors targeting RIPK1 kinase activity for the treatment of inflammatory disorder and cancer metastasis” (Cell Death & Disease, 2019).

The subject of one data set is HT-29 cells. The experiment in a line: TNF-induced necroptosis (TNFα/Smac mimetic/z-VAD), cell viability by ATP levels. In kind it is cell-based, human. How it is done: Necroptosis is tightly regulated by RIP kinases including RIPK1 and RIPK3. To develop new necroptosis inhibitors, we screened a small-molecule library of around 240 potential kinase inhibitors that were designed with novel structures to affect the ATP-binding pocket of protein kinases. Human colon cancer HT-29 cells were treated with these compounds for […], followed by treatment with necroptotic stimuli (TNFα, Smac mimetic, and z-VAD) that are known to activate TNF-mediated necroptosis. After 48 h, cell viability was analyzed by monitoring ATP levels.
Fig. 1 PK6 efficiently blocks TNF-α induced necroptosis in both human and mouse cells. a HT-29 cells cultured in 96-well plates were pretreated with the indicated compounds (10 μM) from a library consisting of ~240 compounds that we designed with novel structures for 1 h and subsequently treated with 40 ng/ml TNF-α (T), 100 nM Smac mimetic (S), and the caspase inhibitor 20 μM z-VAD(Z) for 48 h. Cell viability was assessed by measuring ATP levels. Data are represented as the mean ± standard deviation of duplicates. b Chemical structure of PK6. c Dose response curve and EC50 ± SD value for PK6 in TNF-α induced necroptosis in HT-29 cells. Cells were pretreated with indicated concentrations of PK6 for 1 h prior to the treatment with T (40 ng/ml), S (100 nM), and Z (20 μM) for 48 h. Cell viability was assessed by measuring ATP levels. d U937 cells were pretreated with indicated concentrations of PK6 for 1 h followed by the treatment with T (40 ng/ml), S (100 nM), and Z (20 μM) for 24 h. e MEF cells were pretreated with indicated concentrations of PK6 for 1 h followed by the treatment with T (40 ng/ml), S (100 nM), and Z (20 μM) for 24 h. f L929 cells were pretreated with indicated concentrations of PK6 for 1 h prior to the treatment with S (100 nM) and Z (20 μM) for 24 h.
Fig. 2 Chemical optimization of PK6 leads to improvements in anti-necroptotic activity. a, b The effects of the indicated compounds on cell viability were examined in HT-29 cells (a) and L929 cells (b). HT-29 cells were treated as indicate for 48 h and L929 cells for 24 h. Cell viability was assessed by measuring ATP levels. Data are represented as the mean ± standard deviation of triplicates. c Structure and EC50 ± SD value of each compound are shown in the table. EC50 values are the average of at least two independent determinations. d Lead optimization of PK6 TEXT PRINTED IN THE PICTURE: (c) PK6: EC50(nM) HT-29: 1200±53; EC50(nM) L929: 760±26 | (c) PK67: EC50(nM) HT-29: 250±6.3; EC50(nM) L929: 130±6.8 | (c) PK81: EC50(nM) HT-29: 120±7.6; EC50(nM) L929: 20±0.98 | (c) PK84: EC50(nM) HT-29: 97±6.7; EC50(nM) L929: 45±2.1 | (c) PK93: EC50(nM) HT-29: 130±36; EC50(nM) L929: 30±7.4 | (c) PK86: EC50(nM) HT-29: 73±3.9; EC50(nM) L929: 15±1.0 | (c) PK68: EC50(nM) HT-29: 23±1.4; EC50(nM) L929: 13±0.85
(§1) The cell viability was analyzed by using the CellTiter-Glo Luminescent Cell Viability Assay kit following the manufacturer’s instructions (Promega). Luminescence was measured with SpectraMax i3x (Molecular Devices).

The test system of a further data set is NIH3T3-RIPK3 cells. The experiment in a line: RIPK3 dimerization-induced necroptosis (AP20187). The settings on record: AP20187 100 nM, 24 h. The data set is classed as cell-based, mouse. The procedure:
Recombinant proteins were incubated with PK6 and PK68 as indicated. […] NIH3T3-RIPK3 cells were pretreated with indicated compounds for 1 h and subsequently treated with T (40 ng/ml)/S (100 nM)/Z (20 μM) or AP20187 (100 nM) for 24 h. Cell viability was determined by measuring ATP levels. e PK6 and PK68 have no effect on MLKL dimerization-induced cell death in HeLa-MLKL (1–190) cells that stably express MLKL (1–190aa) fused to DmrB. HeLa-MLKL (1–190) cells were pretreated with indicated compounds for 1 h and subsequently treated with AP20187 (100 nM) for 24 h. Cell viability was determined by measuring ATP levels.
Further, we evaluated the selectivity of PK68 against a panel of 369 kinases provided by Reaction Biology (at 1000 nM). […] In addition, we followed on some of the active “hits” from the kinome scan. PK68 was tested against TNIK and TRKA by a reputable CRO company. […] RIPK1 is known to mediate NF-κB activation independently of its kinase activity. […] It has been shown that homodimerization of RIPK3 or MLKL induced by the dimerizer leads to necroptosis bypassing the upstream signals[10],[37]. […] This dimerized RIPK3-induced necroptosis was blocked by RIPK3 inhibitor GSK873 but was not blocked by the RIPK1 inhibitor necrostatin-1. […] (Fig. 4e).
as §1

A short description of data set [1]: Solubility in FaSSIF, LC/MS/MS. The settings on record: for solubility: pH= 6.5 FaSSIF, LC/MS/MS, duplicates. In kind it is physicochemical. The procedure:
^a Calculated by ACDlabs. ^b Data are measured duplicates in pH= 6.5 FaSSIF using LC/MS/MS. ^c Data are determined three times by SMP10 melting point apparatus.

≈ marks a conversion by molar mass, not a printed value. Like-named read-outs stand apart in the source and are kept apart here.

As for `CC(=O)Nc1nc2ccc(-c3cnc(Cl)c(NC(=O)Cc4ccccc4)c3)cc2s1` [PK6, N-(5-(2-acetamidobenzo[d]thiazol-6-yl)-2-chloropyridin-3-yl)-2-phenylacetamide], the EC50 in the data set with HT-29 cells (Homo sapiens, HT-29, 48 h, T 40 ng/ml, S 100 nM, Z 20 μM, 48 h, read-out: EC50, TNF-induced necroptosis) is around 1200 nM. Further, the RIPK3 dimerization-induced necroptosis result in the data set with NIH3T3-RIPK3 cells is reported as “neither PK6 nor PK68 blocked”. Further, in data set [1], the “solubility (in words)” value was “poor” and the solubility was found to be 0.09 µg/mL (≈ 0.206 µM).

In the case of `CC(=O)Nc1nc2ccc(-c3cnc(C)c(NC(=O)OC4CCCCC4)c3)cc2s1` [PK68, cyclohexyl (5-(2-acetamidobenzo[d]thiazol-6-yl)-2-methylpyridin-3-yl)carbamate], the EC50 with HT-29 cells (Homo sapiens, HT-29, 48 h, T/S/Z 48 h, read-out: EC50(nM) HT-29) is 23 nM; in the data set on HT-29 cells (T/S/Z 48 h, read-out: EC50(nM) HT-29), around 20 nM. Besides, in the data set on NIH3T3-RIPK3 cells, the RIPK3 dimerization-induced necroptosis result is “neither PK6 nor PK68 blocked”. The solubility in data set [1] came out at 0.56 µg/mL (≈ 1.32 µM).
